Source: patent EP4095134A1, “POLYCYCLIC COMPOUNDS FOR THE TREATMENT OF NEUROLOGICAL INDICATIONS” (UCL Business Ltd, priority 2021, dated 2022)

molecular target: T1, P2Y1 receptor (Homo sapiens, UniProt P47900); test: P2Y1 IP1 accumulation HTRF assay, antagonism of agonist MRS2365 in stably transfected cells; assay type: cell-based; settings: racemic; 5nM MRS2365; values rounded to nearest whole number; N >= 4
T1 construct: expressed in transfected cells
Description: IC50 values were determined using a cell based assay in stably transfected cells overexpressing the P2Y1 receptor. The assay system is a […] (HTRF) assay measuring accumulation of the intracellular messenger inositol monophosphate (IP1), generated intracellularly following activation of P2Y1. Activity of test compounds was generated by measuring antagonism of the increase in IP1 generated by addition of a selective P2Y1 agonist, MRS2365.
P2Y1 overexpressing cells were maintained in T175 flasks. The day before the assay, these cells were split and 20µl cell suspension transferred to each well of white 384-well assay plates at a cell density of 0.5x10^6 cells/mL. Plates were pulse centrifuged, then incubated overnight at 37°C / 5% CO2 prior to assay.
On day of assay, medium was removed from cells and replaced with stimulation buffer. Compounds were prepared in 100% DMSO for addition to cells using the Tecan D300e digital dispenser; compounds were prepared in cassette heads and added directly to wells in the required concentration range, to give a 10-point concentration response curve from 10µM with semi-log dilutions and a final DMSO concentration of 0.1%. Positive control antagonist curves with standard compounds were included on each plate. Plates were incubated with antagonists for 1 hour prior to addition of 5nM of the agonist MRS2365, dispensed using a Bravo liquid handler. Following agonist addition, plates were incubated for 60 minutes prior to assay. Both incubations were carried out at 37°C / 5% CO2.
For the assay, IP1 accumulation was quantified using the IPOne kit according to manufacturer's instructions. In short, a standard curve was prepared for IP 1 quantification, and cells lysed using kit lysis buffer. Assay reagents were added to the lysates, and incubated for 1 hour at room temperature without spinning or shaking. Plates were analysed on a BMG Pherastar plate reader, and IP1 signal generated in cells interpolated from the standard curve.
For all reported results, N is greater than or equal to 4. An individual N refers to one assay run with a single weighing of compound. A minimum of two assay runs were performed for each of two independent weighings of compound. Results (racemic)

T1 sequence (P47900 whole entry): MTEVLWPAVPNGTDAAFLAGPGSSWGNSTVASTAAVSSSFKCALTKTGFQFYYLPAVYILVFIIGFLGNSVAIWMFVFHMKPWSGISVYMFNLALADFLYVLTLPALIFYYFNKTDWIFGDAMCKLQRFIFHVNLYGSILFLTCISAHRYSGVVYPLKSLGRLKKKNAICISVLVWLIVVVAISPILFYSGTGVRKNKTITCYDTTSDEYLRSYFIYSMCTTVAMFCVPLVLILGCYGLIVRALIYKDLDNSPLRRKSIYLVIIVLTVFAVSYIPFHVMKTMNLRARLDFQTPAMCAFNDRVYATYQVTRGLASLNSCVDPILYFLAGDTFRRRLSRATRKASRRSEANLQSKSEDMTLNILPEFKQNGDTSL

Q: For `COc1cc(NC(=O)Nc2ccc(C)nc2Oc2ccccc2C2(C(F)(F)F)CCO2)ccc1F` (racemic) [S67, 1-(4-fluoro-3-methoxyphenyl)-3-(6-methyl-2-(2-(2-(trifluoromethyl)oxetan-2-yl)phenoxy)pyridin-3-yl)urea], which IC50 is on record?
A: 1060 nM

Q: For `N#Cc1ccc(NC(=O)Nc2cccnc2Oc2ccccc2C2(C(F)(F)F)CCO2)cc1` (racemic) [S79, 1-(4-cyanophenyl)-3-(2-(2-(2-(trifluoromethyl)oxetan-2-yl)phenoxy)pyridin-3-yl)urea], which IC50 is on record?
A: 3170 nM

Q: For `COc1ccc(F)c(NC(=O)Nc2ccc(C)nc2Oc2ccccc2C2(C(F)(F)F)CCO2)c1` (racemic) [S44, 1-(2-fluoro-5-methoxyphenyl)-3-(6-methyl-2-(2-(2-(trifluoromethyl)oxetan-2-yl)phenoxy)pyridin-3-yl)urea], which IC50 is on record?
A: 348 nM

Q: Which IC50 does the source give for `O=C(Nc1ccc(S(F)(F)(F)(F)F)cc1)Nc1cccnc1Oc1ccccc1C1(C(F)(F)F)CCO1` (racemic) [S28, 1-(4-(pentafluoro-λ^6-sulfaneyl)phenyl)-3-(2-(2-(2-(trifluoromethyl)oxetan-2-yl)phenoxy)pyridin-3-yl)urea] here?
A: 157 nM

Q: For `O=C(Nc1ccc(OC(F)(F)F)cc1)Nc1cccnc1Oc1ccccc1C1(C(F)(F)F)CCO1` (racemic) [S11, 1-(4-(trifluoromethoxy)phenyl)-3-(2-(2-(2-(trifluoromethyl)oxetan-2-yl)phenoxy)pyridin-3-yl)urea], which IC50 is on record?
A: 84 nM

Q: `O=C(Nc1ccc(OC(F)(F)F)cc1)Nc1cccnc1Oc1cccc(C2COC2)c1` (racemic) [S92] was tested. Which IC50 did it give?
A: 2790 nM

Q: How did the IC50 turn out when `Cc1ccc(NC(=O)Nc2ccc(F)cc2)c(Oc2ccc(F)cc2C2(C(F)(F)F)CCO2)n1` (racemic) [S48, 1-(2-(4-fluoro-2-(2-(trifluoromethyl)oxetan-2-yl)phenoxy)-6-methylpyridin-3-yl)-3-(4-fluorophenyl)urea] was run?
A: 408 nM

Q: `O=C(Nc1ccc(OC(F)(F)F)cc1)Nc1cccnc1Oc1ccccc1C1(C(F)(F)F)CCN1CC1CC1` (racemic) [S116] was tested. Which IC50 did it give?
A: 45 nM

Q: With `O=C(Nc1ccc(OC(F)(F)F)cc1)Nc1cccnc1Oc1c(F)cccc1C1(C(F)(F)F)CCO1` (racemic) [S37] as the compound, how does the IC50 read?
A: 220 nM

Q: Which IC50 does the source give for `Cc1ncc(NC(=O)Nc2ccc(OC(F)(F)F)cc2F)c(Oc2ccccc2C2(C(F)(F)F)CCO2)n1` (racemic) [S45] here?
A: 382 nM

Q: Which IC50 does the source give for `O=C(Nc1ccc(OC(F)(F)F)cc1F)Nc1cccnc1Oc1ccccc1C1(C(F)(F)F)CCO1` (racemic) [S9, 1-(2-fluoro-4-(trifluoromethoxy)phenyl)-3-(2-(2-(2-(trifluoromethyl)oxetan-2-yl)phenoxy)pyridin-3-yl)urea] here?
A: 66 nM

Q: Which IC50 does the source give for `COc1ccc(NC(=O)Nc2ccc(C)nc2Oc2ccc(F)cc2C2(C(F)(F)F)CCO2)cn1` (racemic) [S75, 1-(2-(4-fluoro-2-(2-(trifluoromethyl)oxetan-2-yl)phenoxy)-6-methylpyridin-3-yl)-3-(6-methoxypyridin-3-yl)urea] here?
A: 2650 nM

Q: How did the IC50 turn out when `O=C(Nc1ccc(C(F)(F)F)cn1)Nc1cccnc1Oc1ccccc1C1(C(F)(F)F)CCO1` (racemic) [S38, 1-(2-(2-(2-(trifluoromethyl)oxetan-2-yl)phenoxy)pyridin-3-yl)-3-(5-(trifluoromethyl)pyridin-2-yl)urea] was run?
A: 248 nM

Q: `O=C(Nc1ccc(Cl)cc1)Nc1cccnc1Oc1ccccc1C1(C(F)(F)F)CCO1` (racemic) [S27, 1-(4-chlorophenyl)-3-(2-(2-(2-(trifluoromethyl)oxetan-2-yl)phenoxy)pyridin-3-yl)urea] was tested. Which IC50 did it give?
A: 153 nM

Q: `O=C(Nc1ccc(Cl)cc1F)Nc1cccnc1Oc1ccc(F)cc1C1(C(F)(F)F)CCO1` (racemic) [S30, 1-(4-chloro-2-fluorophenyl)-3-(2-(4-fluoro-2-(2-(trifluoromethyl)oxetan-2-yl)phenoxy)pyridin-3-yl)urea] was tested. Which IC50 did it give?
A: 166 nM

Q: Which IC50 does the source give for `O=C(Nc1ccc(C(F)(F)F)nc1)Nc1cccnc1Oc1ccccc1C1(C(F)(F)F)CCO1` (racemic) [S71, 1-(2-(2-(2-(trifluoromethyl)oxetan-2-yl)phenoxy)pyridin-3-yl)-3-(6-(trifluoromethyl)pyridin-3-yl)urea] here?
A: 1480 nM

Q: How did the IC50 turn out when `Cc1c(Oc2ncccc2NC(=O)Nc2ccc(OC(F)(F)F)cc2)cccc1N1CCC1` (racemic) [S94] was run?
A: 889 nM

Q: With `Cc1cc2nc(Nc3cccnc3Oc3ccc(F)cc3C3(C(F)(F)F)CCO3)[nH]c2cc1C` (racemic) [S120] as the compound, how does the IC50 read?
A: 1240 nM

Q: For `O=C(Nc1ccc(Cl)cn1)Nc1cccnc1Oc1ccccc1C1(C(F)(F)F)CCO1` (racemic) [S46, 1-(5-chloropyridin-2-yl)-3-(2-(2-(2-(trifluoromethyl)oxetan-2-yl)phenoxy)pyridin-3-yl)urea], which IC50 is on record?
A: 384 nM

Q: Which IC50 does the source give for `FC(F)(F)c1nnc(Nc2cccnc2Oc2ccccc2C2(C(F)(F)F)CCO2)s1` (racemic) [S73] here?
A: 1690 nM

Q: With `O=C(Nc1ccc(C(F)(F)F)cc1)Nc1cccnc1Oc1ccccc1C1(C(F)(F)F)CCO1` (racemic) [S25, 1-(2-(2-(2-(trifluoromethyl)oxetan-2-yl)phenoxy)pyridin-3-yl)-3-(4-(trifluoromethyl)phenyl)urea] as the compound, how does the IC50 read?
A: 146 nM

Q: For `O=C(Nc1ccc2c(c1)OCO2)Nc1cccnc1Oc1ccccc1C1(C(F)(F)F)CCO1` (racemic) [S70, 1-(benzo[d][1,3]dioxol-5-yl)-3-(2-(2-(2-(trifluoromethyl)oxetan-2-yl)phenoxy)pyridin-3-yl)urea], which IC50 is on record?
A: 1450 nM

Q: How did the IC50 turn out when `CCN1CCC1(c1ccccc1Oc1ncccc1NC(=O)Nc1ccc(OC(F)(F)F)cc1)C(F)(F)F` (racemic) [S5] was run?
A: 43 nM

Q: `O=C(Nc1ccc(OC(F)(F)F)cc1)Nc1cccnc1Oc1cccc(C2(C(F)(F)F)CCO2)c1` (racemic) [S90, 1-(4-(trifluoromethoxy)phenyl)-3-(2-(3-(2-(trifluoromethyl)oxetan-2-yl)phenoxy)pyridin-3-yl)urea] was tested. Which IC50 did it give?
A: 322 nM

Q: `O=C(Nc1ccc(S(F)(F)(F)(F)F)cc1F)Nc1cccnc1Oc1ccccc1C1(C(F)(F)F)CCO1` (racemic) [S13, 1-(2-fluoro-4-(pentafluoro-λ^6-sulfaneyl)phenyl)-3-(2-(2-(2-(trifluoromethyl)oxetan-2-yl)phenoxy)pyridin-3-yl)urea] was tested. Which IC50 did it give?
A: 93 nM

Q: `O=C(Nc1ccc(OC(F)(F)F)cc1)Nc1cccnc1Oc1ccccc1C1COC1` (racemic) [S87] was tested. Which IC50 did it give?
A: 4590 nM

Q: Which IC50 does the source give for `O=C(Nc1ccc(Cl)cc1F)Nc1ccc(Cl)nc1Oc1ccccc1C1(C(F)(F)F)CCO1` (racemic) [S22, 1-(6-chloro-2-(2-(2-(trifluoromethyl)oxetan-2-yl)phenoxy)pyridin-3-yl)-3-(4-chloro-2-fluorophenyl)urea] here?
A: 141 nM

Q: Which IC50 does the source give for `O=C(Nc1cc(OC(F)(F)F)ccc1F)Nc1cccnc1Oc1ccc(F)cc1C1(C(F)(F)F)CCO1` (racemic) [S40, 1-(2-(4-fluoro-2-(2-(trifluoromethyl)oxetan-2-yl)phenoxy)pyridin-3-yl)-3-(2-fluoro-5-(trifluoromethoxy)phenyl)urea] here?
A: 278 nM

Q: How did the IC50 turn out when `Cc1ccc(NC(=O)Nc2ccc(Cl)cc2F)c(Oc2ccc(F)cc2C2(C(F)(F)F)CCO2)n1` (racemic) [S16, 1-(4-chloro-2-fluorophenyl)-3-(2-(4-fluoro-2-(2-(trifluoromethyl)oxetan-2-yl)phenoxy)-6-methylpyridin-3-yl)urea] was run?
A: 108 nM

Q: How did the IC50 turn out when `COc1ccc(F)c(NC(=O)Nc2cccnc2Oc2ccccc2C2(C(F)(F)F)CCO2)c1` (racemic) [S47, 1-(2-fluoro-5-methoxyphenyl)-3-(2-(2-(2-(trifluoromethyl)oxetan-2-yl)phenoxy)pyridin-3-yl)urea] was run?
A: 392 nM

Q: For `COc1ccc2nc(Nc3cccnc3Oc3ccc(F)cc3C3(C(F)(F)F)CCO3)[nH]c2n1` (racemic) [S119], which IC50 is on record?
A: 721 nM

same assay, conditions: single enantiomer; 5nM MRS2365; values rounded to nearest whole number

Q: With `CN1CC[C@]1(c1ccccc1Oc1ncccc1NC(=O)Nc1ccc(OC(F)(F)F)cc1F)C(F)(F)F` (single isomer, unassigned) [S102] as the compound, how does the IC50 read?
A: 52 nM

Q: With `O=C(Nc1ccc(OC(F)(F)F)cc1F)Nc1cccnc1Oc1ccccc1[C@]1(C(F)(F)F)CCO1` [S107] as the compound, how does the IC50 read?
A: 113 nM

Q: Which IC50 does the source give for `Cc1ccc(NC(=O)Nc2ccc(C(C)(C)C(F)(F)F)cc2)c(Oc2ccccc2[C@@]2(C(F)(F)F)CCO2)n1` (single isomer, unassigned) [S99] here?
A: 29 nM

Q: Which IC50 does the source give for `CC(C)c1ccc(NC(=O)Nc2cccnc2Oc2ccccc2[C@@]2(C(F)(F)F)CCO2)c(F)c1` [S124] here?
A: 20 nM

Q: For `O=C(Nc1cc(F)c(Cl)cc1F)Nc1cccnc1Oc1ccccc1[C@@]1(C(F)(F)F)CCO1` (single isomer, unassigned) [S100], which IC50 is on record?
A: 44 nM

Q: How did the IC50 turn out when `O=C(Nc1ccc(OC(F)(F)F)cc1F)Nc1cccnc1Oc1ccccc1[C@@]1(C(F)(F)F)CCO1` [S112] was run?
A: 38 nM

Q: With `Cc1ccc(NC(=O)Nc2ccc(C(C)C)cc2F)c(Oc2ccccc2[C@@]2(C(F)(F)F)CCO2)n1` (single isomer, unassigned) [S122] as the compound, how does the IC50 read?
A: 18 nM

Q: With `Cc1ccc(NC(=O)Nc2ccc(C(C)C)cc2F)c(Oc2ccccc2[C@]2(C(F)(F)F)CCO2)n1` [S123] as the compound, how does the IC50 read?
A: 33 nM
